Laboratory results taken from patent US7504537B2, “Hydroxamic acid derivative and MMP inhibitor containing the same as active ingredient” (Dainippon Sumitomo Pharma Co., Ltd., priority 2001, dated 2009).

Tests used:
MMP-2 = molecular target: T1, MMP-2 (Homo sapiens, UniProt P08253); experiment: Test 3 MMP-2 inhibition activity test (gelatinase activity assay kit); assay type: biochemical; conditions: activated human MMP-2, biotin labeled gelatin
T1 construct: purchased Boeringer Manheim (Roche Diagnostics)
T1 sequence (P08253 110-660): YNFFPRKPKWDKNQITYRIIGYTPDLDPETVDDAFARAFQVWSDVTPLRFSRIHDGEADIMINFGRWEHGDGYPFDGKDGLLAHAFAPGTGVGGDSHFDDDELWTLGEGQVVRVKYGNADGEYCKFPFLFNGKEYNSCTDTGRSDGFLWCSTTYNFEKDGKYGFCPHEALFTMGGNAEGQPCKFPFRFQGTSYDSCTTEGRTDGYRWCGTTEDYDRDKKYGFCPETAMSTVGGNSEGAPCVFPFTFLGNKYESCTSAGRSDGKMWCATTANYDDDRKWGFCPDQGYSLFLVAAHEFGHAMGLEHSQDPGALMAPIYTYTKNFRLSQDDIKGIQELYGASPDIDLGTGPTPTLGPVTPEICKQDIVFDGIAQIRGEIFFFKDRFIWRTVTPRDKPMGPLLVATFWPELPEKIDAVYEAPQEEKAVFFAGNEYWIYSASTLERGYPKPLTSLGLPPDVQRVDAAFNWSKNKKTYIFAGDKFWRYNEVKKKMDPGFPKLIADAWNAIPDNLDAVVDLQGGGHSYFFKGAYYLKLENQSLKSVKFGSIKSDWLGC
Method: TTC buffer solution was attached to a MMP-2 enzyme assay kit, and the solution was made of 50 mM tris, 1 mM calcium chloride solution and 0.05% Triton X-100 solution, and was adjusted to pH 7.5.
Test 3 MMP-2 Inhibition Activity Test
MMP-2 enzyme assay kit (Gelatinase Activity Assay, Roche.Diagonistics) was used.
A mixture of 1.2U human MMP-2 (20 μl, Boeringer Manheim 30U freezed dry product), TTC buffer (980 μl) and 2.5 mM 4-aminophenyl mercuric acetate solution (144 μl) was incubated at 37° C. for 30 minutes and then it was preserved under ice cooling until use.
A mixture of DMSO solution (2 μl) containing a definite concentration of the compound, biotin labeled gelatin (188 μl) and activated MMP-2 solution (10 μl) was put on a 96 well-assay plate (protein nonabsorbance type), well agitated and incubated at 37° C. for 1 hour. This solution was transferred to a Streptavidin-coating plate and agitated at 15° C, to 30° C. for 30 minutes. And then the solution was washed with TTC buffer solution (200 μl) three times. Thereto was added Streptavidin-POD (200 μl) and the mixture was agitated at 15° C. to 25° C. for 60 minutes, followed by washing with TTC buffer (200 μl) three times. Then, ABTS solution (200 μl) was added thereto and after standing at room temperature for 40 minutes, furuorescence intensity was measure at 405 nm and IC50 was calculated.
In case of the above test, a control and a blank were prepared when the well was prepared as mentioned below. DMSO (2 μl) was used as a control instead of a sample solution. In the case of a blank, DMSO (2 μl) instead of the sample solution and the solution (10 μl) prepared in the same manner as preparation of activated MMP-2 solution but without adding 1.2U human MMP-2, instead of activated MMP-2 solution (10 μl), were used.

MMP-13 = molecular target: T2, MMP-13 (Homo sapiens, UniProt P45452); experiment: Test 2 Test on MMP-13 inhibition activity (fluorogenic peptide substrate); assay type: biochemical; conditions: activated MMP-13, 37° C.
T2 construct: a fragment of 767 bp encoding original 84 amino acids of complete MMP-13 and encoding 164 amino acids; made in house; host or cells: E. coli BL21 (DE3), pET11a
From the text: Test 2 Test on MMP-13 Inhibition Activity
In order to subcloning C-terminal truncated cDNA in which the cDNA encodes procollagenase-3 (proMMP-13) (J. Biol. Chem., 269(24), 16766-16773 (1994)), two synthesized oligonucleotide primer fragments: • (5′-[…]-3′ and 5′-[…]-3′: In former the sequence for specific NdeI site (under line) including first methionine is included, and in latter terminal codon and BamHI site (under lined) are included.) were used with human cartilage cell cDNA library for PCR. Due to these primers and Pfu DNA polymelase (STRATAGENE) for PCR, there was obtained a fragment of 767 bp encoding original 84 amino acids of complete MMP-13 and encoding 164 amino acids. The said fragment was cut out with digestion by NdeI and BamHI, and the fragment was annealed to NdeI site and BamHI site of pET11a (STRATAGENE). The recombinant plasmid was transformed into E. coli BL21 (DE3) and the bacteria were cultivated. The crude cell extract was prepared according to the method of Biochemistry. The said extract was dialyzed with 20 mM Tris-HCl (pH 7.2)/5 mM CaCl2/0.02% NaN3 solution, treated with SP-sepharose HP column (1.6×10 cm, Amasham-Pharmacia biotec), and the eluting was carried out by liner gradient from 0 to 0.3 m of sodium chloride solution (50 ml) (partially purified proMMP-13 was eluted at about 0.2M.) The eluted fraction was dialyzed with 20 mM Tris-HCl (pH 7.9)/5 mM CaCl2/200 mM (NH4)2SO4/0.02% NaN3 solution, treated with phenylsepharose HP column (1.6×5 cm, Amersham-Pharmacia biotec), and the eluting was carried out by liner gradient from 0.2M to 0M sulfuric acid ammonium solution (purified proMMP-13 was eluted at about 50 mM.). The eluted fraction was concentrated by YM-5 ultrafilter membrane, and activated by 4-aminophenyl mercuric acetate. Activated MMP-13 was treated with gel filtration chromatography in accordance with the method of Biochemistry to be separated from propeptide. Inhibiting Test Method
Enzyme activity test was carried out by the method of G. Knight (FEBS Lett., 296(3), 263-266 (1992)).
A mixture of activated MMP-13 (20 nM, 10 μl), buffer solution (70 μl, pH 7.5 solution containing 100 mM Tris-HCl solution, 10 mM calcium chloride solution, 100 mM sodium chloride solution and 0.05% Briji-35 solution), MOCAc-Pro-Leu-Gly-Leu-A2pr(DNP)-Ala-Arg-NH2 in 0.1% DMSO solution (100 μM, 10 μl) and a test compound in DMSO solution was incubated for 1.5 hours at 37° C. The mixture was put on a 96 well-plate (100 μl/wel), and the plate was incubated at 37° C. The enzyme activity in the presence of the compound was measured based on fluorescence intensity (λex 320 nm, λem 405 nm), and IC50 was calculated.

| Structure (SMILES) | IC50 (MMP-2) [nM] | IC50 (MMP-13) [nM] |
| --- | --- | --- |
| CC(C)CN(C1(C(=O)NO)CCCC1)S(=O)(=O)c1ccc(Oc2ccc(S(C)(=O)=O)cc2)cc1 [Example 2, N-hydroxy 1-[isobutyl({4-[4-(methylsulfonyl)phenoxy]phenyl}sulfonyl)amino]cyclopentanecarboxamide] | < 100 | 5.7 |
| CC(C)OCCN(CC(=O)NO)S(=O)(=O)c1ccc(Oc2ccc(S(C)(=O)=O)cc2)cc1 [Example 3, N^1-hydroxy-N^2-(2-isopropoxyethyl)-N^2-({4-[4-(methylsulfonyl)phenoxy]phenyl}sulfonyl)glycinamide] | > 100 | 0.5 |
| CC(C)(C(=O)NO)N(Cc1ccccc1)S(=O)(=O)c1ccc(Oc2ccc(S(C)(=O)=O)cc2)cc1 [Example 10, N′^2′-Benzyl-N′^1′-hydroxy-2-methyl-N′^2′-({4-[4-(methylsulfonyl)phenoxy]phenyl}sulfonyl)alaninamide] | 2400 | 34.4 |
| CS(=O)(=O)c1ccc(Oc2ccc(S(=O)(=O)N(Cc3ccccc3)C3(C(=O)NO)CCOCC3)cc2)cc1 [Example 12, 4-[Benzyl({4-[4-(methylsulfonyl)phenoxy]phenyl}sulfonyl)amino]-N-hydroxytetrahydoro-2H-pyrane-4-carboxamide] | < 100 | 4 |
| CS(=O)(=O)c1ccc(Oc2ccc(S(=O)(=O)NCC(=O)NO)cc2)cc1 [Example 13, N′^1′-Hydroxy-N′^2′-({4-[4-(methylsulfonyl)phenoxy]phenyl}sulfonyl)glycinamide] | 900 | 10.8 |
| CC(C)CN(C1(C(=O)NO)CCOCC1)S(=O)(=O)c1ccc(Oc2ccc(S(C)(=O)=O)cc2)cc1 [Example 15, N-Hydroxy-4-[isobutyl({4-[4-(methylsulfonyl)phenoxy]phenyl}sulfonyl)amino]tetrahydro-2H-pyrane-4-carboxamide] | 300 | 24.6 |
| CC(C)CN(C1(C(=O)NO)CCC1)S(=O)(=O)c1ccc(Oc2ccc(S(C)(=O)=O)cc2)cc1 [Example 18, N-Hydroxy-1-[isobutyl({4-[4-(methylsulfonyl)phenoxy]phenyl}sulfonyl)amino]cyclobutanecarboxamide] |  | 3.1 |
| CCOC(=O)CN(CC(=O)NO)S(=O)(=O)c1ccc(Oc2ccc(S(C)(=O)=O)cc2)cc1 [Example 22, Ethyl N-{[(hydroxyamino)carbonyl]methyl}-N-({4-[4-(methylsulfonyl)phenoxy]phenyl}sulfonyl)-glycinate] | 1200 | 1.9 |
| CCOC(=O)CN(C1(C(=O)NO)CCCC1)S(=O)(=O)c1ccc(Oc2ccc(S(C)(=O)=O)cc2)cc1 [Example 23, Ethyl N-{1-[(hydroxyamino)carbonyl]cyclopentyl}-N-({4-[4-(methylsulfonyl)phenoxy]phenyl}sulfonyl)glycinate] | 2100 | 4.1 |
| CS(=O)(=O)c1ccc(Oc2ccc(S(=O)(=O)N(CC(=O)O)CC(=O)NO)cc2)cc1 [Example 24, N-{[(Hydroxyamino)carbonyl]methyl}-N-({4-[4-(methylsulfonyl)phenoxy]phenyl}sulfonyl)-glycine] | > 10000 | 16.3 |
| CCOC(=O)CCN(C1(C(=O)NO)CCCC1)S(=O)(=O)c1ccc(Oc2ccc(S(C)(=O)=O)cc2)cc1 [Example 26, Ethyl N-{1-[(hydroxyamino)carbonyl]cyclopentyl}-N-({4-[4-(methylsulfonyl)phenoxy]phenyl}sulfonyl)-β-alaninate] | 300 | 1.9 |
| CS(=O)(=O)c1ccc(Oc2ccc(S(=O)(=O)N(CCC(=O)O)C3(C(=O)NO)CCCC3)cc2)cc1 [Example 27, N-{1-[(Hydroxyamino)carbonyl]cyclopentyl}-N-({4-[4-(methylsulfonyl)phenoxy]phenyl}sulfonyl)-β-alanine] | > 10000 | 21.3 |
| CCOC(=O)CCN(C1(C(=O)NO)CCOCC1)S(=O)(=O)c1ccc(Oc2ccc(S(C)(=O)=O)cc2)cc1 [Example 31, Ethyl N-{4-[(hydroxyamino)carbonyl]tetrahydro-2H-pyran-4-yl}-N-({4-[4-(methylsulfonyl)phenoxy]phenyl}sulfonyl)-β-alaninate] | 800 | 11.2 |
| CS(=O)(=O)c1ccc(Oc2ccc(S(=O)(=O)N(CCC(=O)O)CC(=O)NO)cc2)cc1 [Example 36, N-[2-(Hydroxyamino)-2-oxoethyl]-N-({4-[4-(methylsulfonyl)phenoxy]phenyl}sulfonyl)-β-alanine] | 2900 | 3.81 |
| CS(=O)(=O)c1ccc(Oc2ccc(S(=O)(=O)N(CC(=O)NO)Cc3ccncc3)cc2)cc1 [Example 42, N′^1′-Hydroxy-N′^2′-({4-[4-(methylsulfonyl)phenoxy]phenyl}sulfonyl)-N′^2′-(4-pyridinylmethyl)glycinamide] | < 100 | 4.02 |
| COCCCN(CC(=O)NO)S(=O)(=O)c1ccc(Oc2ccc(S(C)(=O)=O)cc2)cc1 [Example 43, N^1-Hydroxy-N^2-(3-methoxypropyl)-N^2-({4-[4-(methylsulfonyl)phenoxy]phenyl}sulfonyl)glycinamide] | 1500 | < 0.5 |
| COCCN(CC(=O)NO)S(=O)(=O)c1ccc(Oc2ccc(S(C)(=O)=O)cc2)cc1 [Example 44, N^1-Hydroxy-N^2-(2-methoxyethyl)-N^2-({4-[4-(methylsulfonyl)phenoxy]phenyl}sulfonyl)glycinamide] | > 100 | 0.5 |
| CCOCCN(C1(C(=O)NO)CCCC1)S(=O)(=O)c1ccc(Oc2ccc(S(C)(=O)=O)cc2)cc1 [Example 45, 1-[(2-Ethoxyethyl)({4-[4-(methylsulfonyl)phenoxy]phenyl}sulfonyl)amino]-N-hydroxycyclopentanecarboxamide] | > 100 | 0.6 |
